According to patent US20080194695A1, “Pharmaceutical Composition Containing Sibutramine Free Base and Manufacturing Method Thereof” (priority 2005, published 2008):
Where a name gives a salt, the structure may show the parent alone. Read-outs that look alike come from different tables or passages of the source.

How the values were obtained:
[1] = Hygroscopicity and storage stability of the drug substance as stated in the background art; conditions: during storage
[2] = Solubility and dissolution as stated in the background art; conditions: distilled water and pH 6.8 buffered solution
[3] = Dissolution test, paddle method of the Korean Pharmacopoeia, 50 rpm, capsules with sinker, HPLC; assay type: physicochemical
Protocol: Dissolution tests were performed with examples 1˜6, comparative examples 1˜2, sibutramine free base itself and Reductil™ (Abbott Korea Limited) containing 10[…] of sibutramine hydrochloride monohydrate. To keep dissolution test condition similar, the contents of sibutramine in examples and comparative examples were evaluated with the below HPLC analysis condition and then the predetermined amount of examples, comparative examples and sibutramine free base itself were filled in one capsule to make capsules having 8.37[…] of sibutramine free base. These capsules were used in dissolution tests.
500[…] of pH 4.5 buffered solution [2.99 g of Sodium acetate trihydrate and 1.66[…] of acetic acid anhydrous were dissolved in 1 L of distilled water and then pH of the solution was adjusted to pH 4.5±0.05] and 500[…] of pH 6.8 buffered solution [118[…] of 0.2 mol/L NaOH solution was added to 250[…] of 0.2 mol/L […], and then distilled water was added to make the solution 1000[…]] were used as dissolution media. Paddle method of dissolution test of the Korean Pharmacopoeia was used and paddle was rotated at 50 rpm. Dissolution test was performed for 45 minutes and sinker was also used.
For HPLC analysis, mixture (350:640:10) of acetonitrile, water and tetrahydrofuran was used as mobile phase and ion pair reagent PIC B5 (Low UV) was added to the mobile phase to adjust retention time of peak, and then pH was adjusted to 3.0 with phosphoric acid. Wavelength for determination was 229[…] and flow rate was 1.5[…]/min and injection volume was 20[…].
Results were shown as percent (%) of sibutramine dissolved into dissolution media from test samples compared to the total amount of sibutramine contained in each sample.

[4] = background art; cited from earlier work
[5] = as said in U.S. Pat. No. 6,900,245; cited from earlier work

## CC(C)CC(N(C)C)C1(c2ccc(Cl)cc2)CCC1 (stereo not drawn) [Sibutramine free base, N,N-dimethyl-1-[1-(4-chlorophenyl)-cyclobutyl]-3-methylbutylamine]
[1]
  storage stability in words: may become sticky gel phase during storage
[2]
  solubility in words: does not almost dissolve
[3]; distilled water, 15 min
  percent of sibutramine dissolved into dissolution media: 0%
[3]; distilled water, 30 min
  percent of sibutramine dissolved into dissolution media: 0%
[3]; distilled water, 45 min
  percent of sibutramine dissolved into dissolution media: 0%
[3]; pH 4.5 buffered solution, 15 min
  percent of sibutramine dissolved into dissolution media: 62%
[3]; pH 4.5 buffered solution, 30 min
  percent of sibutramine dissolved into dissolution media: 80%
[3]; pH 4.5 buffered solution, 45 min
  percent of sibutramine dissolved into dissolution media: 88%
[3]; pH 6.8 buffered solution
  dissolution in words: did not practically dissolve
[3]; pH 6.8 buffered solution, 15 min
  percent of sibutramine dissolved into dissolution media: 0%
[3]; pH 6.8 buffered solution, 30 min
  percent of sibutramine dissolved into dissolution media: 0%
[3]; pH 6.8 buffered solution, 45 min
  percent of sibutramine dissolved into dissolution media: 0%

## CC(C)CC(N(C)C)C1(c2ccc(Cl)cc2)CCC1.Cl (stereo not drawn) [sibutramine hydrochloride anhydrous]
[4]
  hygroscopicity in words: highly hygroscopic

## CC(C)CC(N(C)C)C1(c2ccc(Cl)cc2)CCC1 (stereo not drawn) [sibutramine hydrochloride monohydrate]
[5]
  solubility in words: insufficient
[4]
  hygroscopicity in words: non-hygroscopic
